# Results taken from patent publication US20090317476A1, “COMBINATION OF DEHYDROEPIANDROSTERONE OR DEHYDROEPIANDROSTERONE-SULFATE WITH A LEUKOTRIENE RECEPTOR ANTAGONIST FOR TREATMENT OF ASTHMA OR CHRONIC OBSTRUCTIVE PULMONARY DISEASE” (priority 2003, published 2009).
# Values joined by “and” are separate entries in the source; they are usually repeats but may differ in a detail not shown here. Equal entries are not always repeated.
# What was measured:
# Intracellular adenosine = experiment: In vivo effect on adenosine levels in rat tissues
# Method: Folinic acid (50 mg/kg) was administered intraperitoneally once daily for fourteen days. […] Hearts were removed from animals and flash frozen in liquid nitrogen with 10 s of death. Liver and lungs were removed en bloc and flash frozen with 30 s of death. Brain tissue was subsequently dissected.
# [1] = Particle size by Malvern Mastersizer X / light microscope after jet milling or spray drying; format: physicochemical
# Method: Approximately 1 g sample was passed through the jet mill, once, and approximately 2 g sample were passed through the jet mill twice. […] The resulting solution was sonicated for 3 minutes and appeared fully dispersed. The dispersed solutions were tested on a Malvern Mastersizer X with a small volume sampler (SVS) attachment. One sample of dispersed material was tested 5 times. The median particle size or D (v, 0.5) of unmilled material was 52.56 μm and the % RSD (relative standard deviation) was 7.61 for the 5 values. The D (v, 0.5) for a single pass through the jet mill was 3.90 μm and the % RSD was 1.27, and the D (v, 0.5) from a double pass through the jet mill 3.25 μm and the % RSD was 3.10.
# The solution was spray-dried with a B-191 Mini Spray-Drier (Buchi, Flawil, Switzerland) with an inlet temperature of 55° C., outlet temperature of 40° C., at 100% aspirator, at 10% pump, nitrogen flow at 40 mbar and spray flow at 600 units. The spray-dried product was suspended in hexane and Span85 surfactant added to reduce agglomeration. The dispersions were sonicated with cooling for 3-5 minutes for complete dispersion and the dispersed solutions tested on a Malvern Mastersizer X with a Small Volume Sampler (SVS) attachment. […] Visual examination by light microscope of the dispersions of each batch confirmed that spray drying produced small respirable size particles. The mean particle size was 2.4 μm and 2.0 μm for each batch, respectively.
# HT-29 SF cells = experiment: DHEA effect on cell cycle, flow cytometry; format: cell-based, human; details: 25, 50, 200 μM; 24-72 hours
# Method: Cells were plated at 10^5/60-mm dish in duplicate. […] Cultures were trypsinized following 0, 24, 48, or 74 hours and fixed and stained using a modification of a procedure of Bauer et al., Cancer Res. 46, 3173-3178 (1986). Briefly, cells were collected by centrifugation and resuspended in cold phosphate-buffered saline. Cells were fixed in 70% ethanol, washed, and resuspended in phosphate-buffered saline.
# After 24, 48, and 72 hours, cells were harvested, fixed in ethanol, and stained with propidium iodide, and the DNA content/cell was determined by flow cytometric analysis. The percentage of cells in G1, S, and G2M phases was calculated using the Cellfit cell cycle analysis program. S phase is marked by a quadrangle for clarity. Representative histograms from duplicate determinations are shown. The experiment was repeated three times.
# [2] = Solubility of DHEA-S as a function of NaCl and temperature; format: physicochemical; details: 20 mM Na^+; Ksp 1316 mM^2; 15° C.
# Source text: Inhalation of pure water can produce a cough stimulus. […] The temperature effect is weaker at high NaCl concentrations.
# [3] = Short-term solution stability of DHEA-S formulation; format: physicochemical; details: for Appearance on storage: 10 mg/mL in 0.12% NaCl
# Method: Aliquots of this solution are filled into clear glass vials and stored at RT (24-26° C.) and at 40° C. The samples are checked daily for DHEA-S content, DHEA content, and appearance. For each time point, duplicate samples are withdrawn and diluted from each vial. […] The study is stopped on day three. […] The solution should easily be stable for the day of reconstitution in a clinical trial. The following section describes the aerosol properties of this formulation.
# [4] = test system: rat peritoneal mast cells; experiment: Mast cell degranulation (histamine secretion) after compound 48/80; format: cell-based
# Source text: Leukotrienes are synthesized within—although not exclusively by the mast cell (Gilchrist, M., McCauley, S.D., & Befus, A. D. (2004) Expression, localization, and regulation of NOS in human mast cell lines: effects on leukotriene production. Blood 104, 462-469.). We determined whether DHEA-sulfate would reduce mast cell degranulation after stimulation with compound 48/80 in rat peritoneal mast cells. Mast cell degranulation was quantified by measurement of histamine, another substance contained within the secretory granules of mast cells. The simple measurement of released histamine is used as a convenient surrogate marker for the release of leukotrienes.
# Freshly isolated rat peritoneal mast cells (2×10^5 cells) were pre-incubated for 5 min at 37° C. in a Balanced Salt Solution containing 150 mM NaCl (pH 7.4), 2.7 mM KCl, 0.9 mM CaCl2, 4 mM Na2HPO4, 2.7 mM KH2PO4, 1.75 mg/ml BSA and 0.1 μg/ml compound 48/80. Thereafter, DHEAS or water (control) are added and the mixture is incubated for 2 min at 37° C.
# Following incubation, the mixture is cooled to 4° C. then centrifuged at 4500 rpm for 5 min. […]
# The amount of secreted histamine is quantified by measuring the fluorescence intensity at λex=360 nm and λem=450 nm using a spectrofluorimeter (GeminiXS, Molecular Devices). The results are expressed as a percent inhibition of control histamine secretion.
# [5] = Physicochemical testing of DHEA-S dihydrate before and after micronization; details: for Water (% w/w): Karl Fischer
# Method: Surface area is determined using five point BET analyses are performed with nitrogen as the adsorbing gas (P/Po=0.05 to 0.30) using a Micromeritics TriStar surface area analyzer. Particle size distributions are measured by laser diffraction using a Micromeritics Saturn Digisizer where the particles are suspended in mineral oil with sodium dioctyl sodium sulfosuccinate as a dispersing agent. Drug substance water content is measured by Karl Fischer titration (Schott Titroline KF). Pure water is used as the standard and all relative standard deviations for triplicates are less than 1%. Powder is added directly to the titration media.
# [6] = Solid-state stability neat and with lactose at 50° C. (DHEA formed, HPLC); format: physicochemical
# Source text: These conditions were used to stress the formulation in order to predict its long-term stability results. […] The primary degradant is DHEA. […] The materials on accelerated storage become more cohesive with time as evidenced by clumping during sample weighing for chemical analysis. […] This is a considerable disadvantage since lactose is the most commonly used inhalation excipient for dry powder formulations. Continuing with the virtually anhydrous form would mean limiting formulations to neat powder or undertaking more comprehensive safety studies to use a novel excipient.
# [7] = cited from earlier work
smiles,measurement,setting,value
"Nc1nc(=O)c2c([nH]1)NCC(CNc1ccc(C(=O)N[C@@H](CCC(=O)O)C(=O)O)cc1)N2C=O (mixture of isomers) [Folinic Acid, Folinic acid]","Effect on adenosine levels, administered alone",Intracellular adenosine; all organs studied,increase in adenosine levels
same,Effect of coadministration of folinic acid on steroid-mediated adenosine depletion,Intracellular adenosine; with DHEA or methyltestosterone,completely abrogated steroid-mediated adenosine depletion
C[C@]12CC[C@H](OS(=O)(=O)[O-])CC1=CC[C@@H]1[C@@H]2CC[C@]2(C)C(=O)CC[C@@H]12.[Na+] [Anhydrous DHEA-S],"D (v, 0.5)",[1]; double pass through the jet mill,3.25 μm
same,"D (v, 0.5)",[1]; single pass through the jet mill,3.90 μm
same,"median particle size or D (v, 0.5)",[1]; unmilled material,52.56 μm
"C[C@]12CC[C@H](O)CC1=CC[C@@H]1[C@@H]2CC[C@]2(C)C(=O)CC[C@@H]12 [DHEA, 3β-hydroxyandrost-5-en-17-one]",Effect on cell cycle distribution,HT-29 SF cells,G1 block
"C[C@]12CC[C@H](OS(=O)(=O)[O-])CC1=CC[C@@H]1[C@@H]2CC[C@]2(C)C(=O)CC[C@@H]12.[Na+] [DHEA-S, sodium dehydroepiandrostenone sulfate]",calculated DHEA-S solution concentration,[2],10.7 mg/mL
same,calculated DHEA-S^− solution concentration,[2],27.5 mM
same,Stability of nebulizer formulation,"[3]; 7.5 mg/mL of DHEA-S in 0.12% NaCl, RT",stable for at least one day at RT
same,Appearance on storage,[3]; 40° C.,became cloudy after two days of storage
same,Appearance on storage,[3]; RT (24-26° C.),slight precipitate is observed on the third day
same,"maximal effect, percent inhibition of control histamine secretion","[4]; at 0.1 uM, compound 48/80 stimulated",69.9%
same,solubility under the assay conditions,[4]; at 10^-4 M,highly limited
C[C@]12CC[C@H](OS(=O)(=O)[O-])CC1=CC[C@@H]1[C@@H]2CC[C@]2(C)C(=O)CC[C@@H]12.O.O.[Na+] [DHEA-S•dihydrate],Particle size (D50%),[5]; Bulk,31 microns
same,Water (% w/w),[5]; Bulk,8.5 % w/w
same,Particle size (D50%),[5]; Micronized,3.7 microns
same,Water (% w/w),[5]; Micronized,8.4 % w/w
same,Surface area (m^2/g),"[5]; Micronized, five point BET",4.9 m^2/g
same,Percent DHEA formed,"[6]; DHEA-S dihydrate, 50° C., 1 week",0.216%
same,Percent DHEA formed,"[6]; DHEA-S dihydrate, 50° C., 3 weeks",0.317%
same,Percent DHEA formed,"[6]; DHEA-S dihydrate, 50° C., 4 weeks",0.374%
same,"water content, starting value",[6]; before storage,8.8%
same,Percent DHEA formed,"[6]; dihydrate, Control, neat, sealed, 25° C., 4 weeks",0.218%
same,Percent DHEA formed,"[6]; dihydrate, Control, neat, sealed, 25° C., Time (Weeks)",0.213%
same,water content after accelerated storage,[6]; one week at 50° C.,8.66%
C[C@]12CC[C@H](OS(=O)(=O)[O-])CC1=CC[C@@H]1[C@@H]2CC[C@]2(C)C(=O)CC[C@@H]12.[Na+] [Spray-Dried Drug Product],mean particle sizes,"[1]; two batches of spray dried material, Malvern Mastersizer X, listed as spray-dried product",5.07±0.70 μm and 6.66±0.91 μm
"COc1cc(C(=O)NS(=O)(=O)c2ccccc2C)ccc1Cc1cn(C)c2ccc(NC(=O)OC3CCCC3)cc12 [Zafirlukast, 4(5-cyclopentyloxy-carbonylamino-1-methyl-indol-3ylmethyl)-3methoxy-N-o-tolylsulfonylbenzamide]",Solubility in acetone,[7],freely soluble
same,Solubility in dimethylsulfoxide,[7],freely soluble
same,Solubility in methanol,[7],slightly soluble
same,Solubility in tetrahydrofuran,[7],freely soluble
same,Solubility in water,[7],practically insoluble
